Measured values published in the NIST ThermoML archive (doi:10.1016/j.fluid.2014.04.038).
“And” between values parts separate entries of the source, which are not always exact repeats. Identical values can stand only once. Numbers after ± are expanded uncertainties.

Conditions: Gas, Hot wire method

## N#N [nitrogen]
321.58 K, 2776.2 kPa
  thermal conductivity: 0.0278 ± 0.0017 W/m/K
321.95 K, 2778.7 kPa
  thermal conductivity: 0.02777 ± 0.0017 W/m/K
321.99 K, 2778.7 kPa
  thermal conductivity: 0.02793 ± 0.0017 W/m/K
322.25 K, 2776.2 kPa
  thermal conductivity: 0.02762 ± 0.0017 W/m/K
322.29 K, 2776.2 kPa
  thermal conductivity: 0.02772 ± 0.0017 W/m/K
322.61 K, 2776.2 kPa
  thermal conductivity: 0.02762 ± 0.0017 W/m/K
323.16 K, 1008.8 kPa
  thermal conductivity: 0.02726 ± 0.0017 W/m/K
323.18 K, 1008.8 kPa
  thermal conductivity: 0.02729 ± 0.0017 W/m/K
324.06 K, 1008.8 kPa
  thermal conductivity: 0.02748 ± 0.0017 W/m/K
324.12 K, 1008.8 kPa
  thermal conductivity: 0.02747 ± 0.0017 W/m/K
325.1 K, 1008.8 kPa
  thermal conductivity: 0.0277 ± 0.0017 W/m/K and 0.02772 ± 0.0017 W/m/K
325.44 K, 574.1 kPa
  thermal conductivity: 0.02822 ± 0.0017 W/m/K
326.18 K, 2705.7 kPa
  thermal conductivity: 0.02794 ± 0.0017 W/m/K
326.24 K, 2705.7 kPa
  thermal conductivity: 0.02859 ± 0.0018 W/m/K
326.43 K, 4299.5 kPa
  thermal conductivity: 0.02906 ± 0.0018 W/m/K
326.51 K, 4299.5 kPa
  thermal conductivity: 0.02914 ± 0.0018 W/m/K
326.67 K, 3835.8 kPa
  thermal conductivity: 0.02909 ± 0.0018 W/m/K and 0.02897 ± 0.0018 W/m/K
326.72 K, 2705.7 kPa
  thermal conductivity: 0.02848 ± 0.0018 W/m/K
326.75 K, 2705.7 kPa
  thermal conductivity: 0.02853 ± 0.0018 W/m/K
327.32 K, 1657.7 kPa
  thermal conductivity: 0.02798 ± 0.0017 W/m/K
327.57 K, 1657.7 kPa
  thermal conductivity: 0.02789 ± 0.0017 W/m/K
327.66 K, 4299.5 kPa
  thermal conductivity: 0.0294 ± 0.0018 W/m/K
327.7 K, 4299.5 kPa
  thermal conductivity: 0.02966 ± 0.0018 W/m/K
327.84 K, 1209.3 kPa
  thermal conductivity: 0.02782 ± 0.0017 W/m/K
327.85 K, 1209.3 kPa
  thermal conductivity: 0.02748 ± 0.0017 W/m/K
327.86 K, 3835.8 kPa
  thermal conductivity: 0.0294 ± 0.0018 W/m/K and 0.02906 ± 0.0018 W/m/K
328.83 K, 1657.7 kPa
  thermal conductivity: 0.02814 ± 0.0017 W/m/K
328.85 K, 1657.7 kPa
  thermal conductivity: 0.02817 ± 0.0017 W/m/K
329.15 K, 1209.3 kPa
  thermal conductivity: 0.02785 ± 0.0017 W/m/K
329.17 K, 1209.3 kPa
  thermal conductivity: 0.02784 ± 0.0017 W/m/K
330.94 K, 2682.6 kPa
  thermal conductivity: 0.02851 ± 0.0018 W/m/K
330.96 K, 2682.6 kPa
  thermal conductivity: 0.0287 ± 0.0018 W/m/K
332.04 K, 2682.6 kPa
  thermal conductivity: 0.02834 ± 0.0017 W/m/K
332.12 K, 2682.6 kPa
  thermal conductivity: 0.02902 ± 0.0018 W/m/K
335.72 K, 2657.4 kPa
  thermal conductivity: 0.02849 ± 0.0018 W/m/K
335.73 K, 2657.4 kPa
  thermal conductivity: 0.02905 ± 0.0018 W/m/K
336.01 K, 4212.3 kPa
  thermal conductivity: 0.02961 ± 0.0018 W/m/K
336.02 K, 4212.3 kPa
  thermal conductivity: 0.02949 ± 0.0018 W/m/K
336.33 K, 2657.4 kPa
  thermal conductivity: 0.02874 ± 0.0018 W/m/K
336.36 K, 2657.4 kPa
  thermal conductivity: 0.02885 ± 0.0018 W/m/K
337.13 K, 4212.3 kPa
  thermal conductivity: 0.03001 ± 0.0018 W/m/K and 0.0297 ± 0.0018 W/m/K
340.86 K, 2579.4 kPa
  thermal conductivity: 0.02926 ± 0.0018 W/m/K
340.87 K, 2579.4 kPa
  thermal conductivity: 0.02913 ± 0.0018 W/m/K
341.16 K, 2579.4 kPa
  thermal conductivity: 0.02959 ± 0.0018 W/m/K
341.21 K, 2579.4 kPa
  thermal conductivity: 0.02922 ± 0.0018 W/m/K
